According to paper PMC5693986, “Atomic resolution snapshot of Leishmania ribosome inhibition by the aminoglycoside paromomycin” (Nature Communications, 2017):
Several values for one entry are separate records, joined by “and”; a condition that tells them apart may be missing. Equal values may be shown once. Read-outs that look alike come from different tables or passages of the source.

What was measured:
[1] = system: bacterial translation (E. coli S30 extract); assay: In vitro inhibition of translation in E. coli S30 extracts (luciferase reporter); type: biochemical; conditions: mean ± SE of at least three independent repeats, read-out: Inhibition of translation—IC50, Bacteria
Description: (§1) In order to assess cytosolic ribosome susceptibility and selectivity to putative anti-leishmanial compounds, we performed three different cell-free transcription-translation assays in S30 extracts of E. coli (Promega), rabbit reticulocytes (Promega) and L. tarentolae (Jena Bioscience). […] The ribosomes derived from this species are highly similar to L. donovani ribosomes. Three plasmids, compatible with each extract system, were used in this study: pBESTlucTM (Promega) for the prokaryotic translation assay, Luciferase T7 DNA (Promega) for the reticulocytes and pLEXSY-invitro2-EGFP (Jena Bioscience) for Leishmania. Firefly luciferase was used as a reporter gene for the bacterial and reticulocyte systems and EGFP for Leishmania. […] Assays were performed in white polystyrene 96-well flat bottom plates (Nunc) for the luciferase and black polystyrene 384-well flat-bottom plates (Greiner) for the EGFP. Incubation times were 60 min at 37 °C, 90 min at 30 °C and 120 min at 26 °C for the bacterial, reticulocyte and Leishmania systems, respectively. Reactions were stopped by quick snap cooling followed by a 5-min incubation on ice. Luciferase activity was measured for each well following the addition of 50 μl Luciferase Assay reagent (Promega) by recording the chemi-luminescence signal on […] (Tecan). EGFP fluorescence (λ ex = 488 nm; λ em = 507 nm) was recorded on Tecan Infinite R®F200 microplate reader (Tecan). Extracts lacking the circular DNA template were used as negative control to calculate the fluorescence/chemi-luminescence background. Reaction mixtures without compound presence were used as positive control and were regarded as 100% translation. At least six different concentrations were used to plot each translation inhibition curve, experiments were performed in three independent repeats in duplicates. Half-maximal inhibition concentration (IC50) values were calculated from the concentration–response fitting curves of using GraFit7 software.

[2] = biological target: rabbit reticulocyte lysate translation; assay: In vitro inhibition of translation in rabbit reticulocyte lysates (luciferase reporter); type: biochemical; conditions: mean ± SE of at least three independent repeats, read-out: Inhibition of translation—IC50, Reticulocytes
Description: as §1

[3] = system: leishmanial cytosolic ribosome; assay: In vitro inhibition of translation in L. tarentolae lysates (cell-free transcription-translation, EGFP reporter); type: biochemical; conditions: for IC50: L. tarentolae lysates, mean ± SE of at least three independent repeats, read-out: Inhibition of translation—IC50, Leishmania
Description: as §1

[4] = system: leishmanial decoding (UGA stop codon read-through); assay: In vitro assessment of misreading (dual-luciferase UGA stop codon read-through) in L. tarentolae lysates; type: biochemical; conditions: for Misreading activity (UGA stop codon read-through) at IC50 levels: at the compound's IC50 concentration, L. tarentolae lysates
Description: To examine AG modes of action in Leishmania, we designed a dual-reporter assay whereby an in-frame linker containing a UGA stop mutation was introduced in between two genes encoding Renilla and Firefly luciferases cloned into an in vitro Leishmania expression system. A similar system was previously used to assess stop codon read-through events in bacteria as well as other eukaryotes, and as these levels seemed to correspond to tRNA misreading levels it has also been previously used to evaluate infidelity of translation[38],[39].
The content of a p2luc dual-luciferase derived from an SV-40 vector with either wild type or an in-frame TGA stop codon poly-linker was cloned into pLEXSY-invitro2 that is compatible with Leishmania in vitro translation (Jena Bioscience). SV-40 constructs were a generous gift by Professor Timor Baasov. Cloning has been performed by restriction-free (RF) PCR methodology as previously described by Unger et al.[40].
5′-[…]-3′ and 5′-[…]-3′ were used as forward and reverse primers, respectively. Primers were produced by custom design (Sigma). The in vitro misreading assays were performed in L. tarentolae lysates and were designed similarly to the inhibition of translation assay reported herein. The main modifications were that the final reaction volume was adjusted to 20 μl and that the assay has been performed in white polystyrene 96-well flatbottom plates (Nunc). Luciferase activity was determined after 120 min incubation at 26 °C, using the Dual luciferase reporter assay system (Promega) and was performed according to the manufacturer’s instructions.

[5] = system: bacterial translation (E. coli S30 extract); design: method as in PMID 26264664; conditions: mean ± SE, read-out: Inhibition of translation—IC50, Bacteria; cited from earlier work
[6] = system: rabbit reticulocyte lysate translation; design: method as in PMID 26264664; conditions: rabbit reticulocyte lysates; mean ± SE; read-out: Inhibition of translation—IC50, Reticulocytes; cited from earlier work

| SMILES | IC50 [1] | IC50 [2] | IC50 [3] | Misreading of the genetic code (result in words) ([4]; at concentrations corresponding to its IC50 value) | Reduced activity in Leishmania compared to bacteria (inhibition of translation) ([3]; Leishmania versus bacterial ribosome, from Table 1) | Misreading activity (UGA stop codon read-through) at IC50 levels [4] | IC50 [5] | IC50 [6] |
| --- | --- | --- | --- | --- | --- | --- | --- | --- |
| CNC1CC(N)C(O)C(OC2OC(CO)C(O)C3OC4(OC(C(N)CO)C(O)C(O)C4O)OC23)C1O (stereo not shown) [HYG, hygromycin B] | 11 ± 2 nM | 800 ± 100 nM | 65 nM and 64.7 nM | does not induce misreading |  |  |  |  |
| CN[C@@H]1[C@@H](O[C@H]2O[C@H](CO)[C@@H](N)[C@H](O)[C@H]2O)OC2C[C@@H](N)[C@@H](O[C@H]3[C@H](O)[C@@H](O)[C@H](N)C[C@@H]3N)OC2[C@@H]1O (stereo partly shown) [APR, apramycin] | 49 ± 3 nM | 29000 ± 6000 nM | 201000 ± 16100 nM |  | 4 orders of magnitude | 5% |  |  |
| NC[C@@H]1O[C@H](O[C@H]2[C@@H](O)[C@H](O[C@@H]3[C@@H](O)[C@H](N)C[C@H](N)[C@H]3O[C@H]3O[C@H](CN)[C@@H](O)[C@H](O)[C@H]3N)O[C@@H]2CO)[C@H](N)[C@@H](O)[C@@H]1O [NEO, neomycin B] | 11 ± 1 nM | 28000 ± 5000 nM | 82400 nM |  |  |  |  |  |
| CN[C@@H]1[C@@H](O)[C@@H](O[C@@H]2[C@@H](O)[C@H](O[C@H]3O[C@H]([C@@H](C)O)[C@@H](O)[C@H](O)[C@H]3N)[C@@H](N)C[C@H]2N)OC[C@]1(C)O [G418, geneticin] |  |  | 150 nM and 153 nM |  |  |  | 9 ± 1.5 nM | 2000 ± 300 nM |
| NC[C@@H]1O[C@H](O[C@H]2[C@@H](O)[C@H](O[C@@H]3[C@@H](O)[C@H](N)C[C@H](N)[C@H]3O[C@H]3O[C@H](CO)[C@@H](O)[C@H](O)[C@H]3N)O[C@@H]2CO)[C@H](N)[C@@H](O)[C@@H]1O [PAR, paromomycin] |  |  | 3620 ± 176 nM |  |  | 26% | 51 ± 5 nM | 57000 ± 4000 nM |
| CNC(C)C1CCC(N)C(OC2C(N)CC(N)C(OC3OCC(C)(O)C(NC)C3O)C2O)O1 (stereo not shown) [GEN, gentamicin] | 28 ± 4 nM | 62000 ± 9000 nM | 18400 nM |  |  |  |  |  |
